Measurements from ChEMBL document CHEMBL3603745, “Synthesis of ciprofloxacin dimers for evaluation of bacterial permeability in atypical chemical space” (Bioorg Med Chem Lett, 2015).
In brackets after ≈: the same amount, converted by molar mass.

What was measured:
[1] = Inhibition of Escherichia coli recombinant gyrase A2B2 assessed as reduction of pHOT-1 supercoiling after 90 mins
Escherichia coli [2] = assay: Antibacterial activity against wild type Escherichia coli ATCC 25922 by broth microdilution method; assay type: functional
Escherichia coli [3] = assay: Antibacterial activity against wild type Escherichia coli BW5328/pAH69 by broth microdilution method; assay type: functional
Escherichia coli [4] = assay: Antibacterial activity against tolC-deficient Escherichia coli JW5503-1 by broth microdilution method; assay type: functional
Escherichia coli [5] = assay: Antibacterial activity against tolC-deficient Escherichia coli NB27005-CDY0039 expressing gyrA S83L […], parC S80I mutant by broth microdilution method; assay type: functional
Escherichia coli [6] = assay: Antibacterial activity against wild type Escherichia coli MC4100 by broth microdilution method; assay type: functional
Escherichia coli [7] = assay: Antibacterial activity against Escherichia coli imp-4213 by broth microdilution method; assay type: functional
Escherichia coli [8] = assay: Antibacterial activity against fluoroquinolone-resistant Escherichia coli CH10 harboring gyrA S83L D87N, parC S80I E84G, AcrA+ by broth microdilution method; assay type: functional
Staphylococcus aureus [9] = assay: Antibacterial activity against wild type Staphylococcus aureus ATCC 29213 by broth microdilution method; assay type: functional
Staphylococcus aureus [10] = assay: Antibacterial activity against wild type methicillin-susceptible Staphylococcus aureus ATCC 49951 by broth microdilution method; assay type: functional
Staphylococcus aureus [11] = assay: Antibacterial activity against fluoroquinolone-resistant Staphylococcus aureus NB01006-AVR005 harboring gyrA S84L, parC S80F, parE E471K by broth microdilution method; assay type: functional
Pseudomonas aeruginosa [12] = assay: Antibacterial activity against wild type Pseudomonas aeruginosa PAO1 by broth microdilution method; assay type: functional
Pseudomonas aeruginosa [13] = assay: Antibacterial activity against Pseudomonas aeruginosa K1542 deficient with mexX, mexB by broth microdilution method; assay type: functional
Pseudomonas aeruginosa [14] = assay: Antibacterial activity against mexX, mexB deficient Pseudomonas aeruginosa NB52023-CDK005 harboring gyrAT83I by broth microdilution method; assay type: functional
Pseudomonas aeruginosa [15] = assay: Antibacterial activity against mexX, mexB deficient Pseudomonas aeruginosa NB52023-CDK006 harboring gyrAT83I and parC S87L by broth microdilution method; assay type: functional

Row | SMILES | IC50 [1] [nM] | MIC (Escherichia coli [2]) [µg/mL] | MIC (Escherichia coli [3]) [µg/mL] | MIC (Escherichia coli [4]) [µg/mL] | MIC (Escherichia coli [5]) [µg/mL] | MIC (Escherichia coli [6]) [µg/mL] | MIC (Escherichia coli [7]) [µg/mL] | MIC (Escherichia coli [8]) [µg/mL] | MIC (Staphylococcus aureus [9]) [µg/mL] | MIC (Staphylococcus aureus [10]) [µg/mL] | MIC (Staphylococcus aureus [11]) [µg/mL] | MIC (Pseudomonas aeruginosa [12]) [µg/mL] | MIC (Pseudomonas aeruginosa [13]) [µg/mL] | MIC (Pseudomonas aeruginosa [14]) [µg/mL] | MIC (Pseudomonas aeruginosa [15]) [µg/mL]
1 | O=C(NCC(=O)N1CCN(c2cc3c(cc2F)c(=O)c(C(=O)O)cn3C2CC2)CC1)c1cccc(C(=O)NCC(=O)N2CCN(c3cc4c(cc3F)c(=O)c(C(=O)O)cn4C3CC3)CC2)c1 | 3200 | 1 (≈ 1.1 µM) | 2 (≈ 2.21 µM) | 0.25 (≈ 0.276 µM) | > 32 | 2 (≈ 2.21 µM) | 0.25 (≈ 0.276 µM) | > 32 | > 32 | 1 (≈ 1.1 µM) | > 32 | 16 (≈ 17.6 µM) | 2 (≈ 2.21 µM) | 32 (≈ 35.3 µM) | > 32
2 | O=CN1CCN(c2cc3c(cc2F)c(=O)c(C(=O)O)cn3C2CC2)CC1 | 250 | 0.125 (≈ 0.348 µM) | 0.125 (≈ 0.348 µM) | ≤ 0.03 | 4 (≈ 11.1 µM) | 0.25 (≈ 0.696 µM) | ≤ 0.03 | > 32 | 0.25 (≈ 0.696 µM) | 0.25 (≈ 0.696 µM) | 32 (≈ 89 µM) | 2 (≈ 5.57 µM) | 0.25 (≈ 0.696 µM) | 16 (≈ 44.5 µM) | 32 (≈ 89 µM)
3 | O=C(O)c1cn(C2CC2)c2cc(N3CCN(C(=O)c4cccc(C(=O)N5CCN(c6cc7c(cc6F)c(=O)c(C(=O)O)cn7C6CC6)CC5)c4)CC3)c(F)cc2c1=O | 110 | > 32 | > 32 | 0.125 (≈ 0.158 µM) | > 32 | > 32 | 0.06 (≈ 0.0757 µM) | > 32 | 2 (≈ 2.52 µM) | 0.25 (≈ 0.315 µM) | > 32 | > 32 | > 32 | > 32 | > 32
4 | CC(C)(C)OC(=O)NCCCCCC(=O)N1CCN(c2cc3c(cc2F)c(=O)c(C(=O)O)cn3C2CC2)CC1 | 4350 | > 32 | > 32 | 0.06 (≈ 0.11 µM) | 2 (≈ 3.67 µM) | > 32 | 0.25 (≈ 0.459 µM) | > 32 | 2 (≈ 3.67 µM) | 2 (≈ 3.67 µM) | > 32 | > 32 | > 32 | > 32 | > 32
